Assay results taken from patent USRE47589E1, “Phosphoramidate compounds and methods of use” (NuCana plc, priority 2003, dated 2019).
Where two headings read alike, the source gives them in different places.

Key:
Assay type in all cases: cell-based
[1] = test system: human breast cancer cell line (MDA MB 231); experiment: MTT cytotoxicity assay, breast cancer cell line; conditions: Homo sapiens, MDA-MB-231, read-out: EC50/μM Breast MDA MB231
Description: (§1) The compounds include those whose preparations are described above and compounds made by preparative methods corresponding to the methods described above.
(§2) Compounds were diluted over a range of concentrations and added to cells over 1 to 3 days. The cytotoxity was determined using a MTT assay at the end of each experiment.

[2] = test system: human colon cancer cell line (HT115); experiment: MTT cytotoxicity assay, colon cancer cell line
Description: as §1, §2

[3] = test system: human prostate cancer cell line (PC-3); experiment: MTT cytotoxicity assay, prostate cancer cell line; conditions: read-out: EC50/μM Prostate PC-3
Description: as §1, §2

[4] = Homo sapiens, HT115, read-out: EC50/μM Colon HT115, MTT assay, compounds added to cells over 1 to 3 days
[5] = MTT assay, compounds added to cells over 1 to 3 days
[6] = MTT assay, compounds added to cells over 1 to 3 days, read-out: EC50/μM Colon HT115

| Compound | EC50 [1] [µM] | EC50 [2, 4] [µM] | EC50 ([3]; Homo sapiens) [µM] | EC50 [3, 5] [µM] | EC50 ([2]; read-out: EC50/μM Colon HT115, MTT assay, compounds added to cells over 1 to 3 days) [µM] | EC50 [2, 6] [µM] |
| --- | --- | --- | --- | --- | --- | --- |
| COC(=O)C1(NP(=O)(OC[C@H]2O[C@@H](n3cc(/C=C/Br)c(=O)[nH]c3=O)CC2O)Oc2ccc(C(F)(F)F)cc2)CCCC1 (stereo partly drawn) [Example 28, (E)-5-(2-Bromovinyl)-2′-deoxyuridine-5′-[para-trifluorophenyl-(methoxy-α,α-cycloleucinyl)]-phosphate] | 28.8 | 21.2 | – | – | – | – |
| CCOC(=O)C1(NP(=O)(OC[C@H]2O[C@@H](n3cc(/C=C/Br)c(=O)[nH]c3=O)CC2O)Oc2ccc(Cl)cc2)CCCC1 (stereo partly drawn) [Example 33, (E)-5-(2-Bromovinyl)-2′-deoxyuridine-5′-[para-chlorophenyl-(ethoxy-α,α-cycloleucinyl)]-phosphate] | 12 | 97.9 | 83.2 | – | – | – |
| O=c1[nH]c(=O)n([C@H]2CC(O)[C@@H](CO)O2)cc1/C=C/Br (stereo in doubt) [Example A, 5-(2-Bromovinyl)-2′-deoxyuridine, reference compound] | 125 | 78.7 | 120 | – | – | – |
| COC(=O)C1(NP(=O)(OC[C@H]2O[C@@H](n3cc(/C=C/Br)c(=O)[nH]c3=O)CC2O)Oc2ccc(Cl)cc2)CCCC1 (stereo partly drawn) [Example 32, (E)-5-(2-Bromovinyl)-2′-deoxyuridine-5′-[para-chlorophenyl-(methoxy-α,α-cycloleucinyl)]-phosphate] | 2.6 | 99.3 | 52.2 | – | – | – |
| CC(C)(NP(=O)(OC[C@H]1O[C@@H](n2cc(/C=C/Br)c(=O)[nH]c2=O)CC1O)Oc1ccc([N+](=O)[O-])cc1)C(=O)OCc1ccccc1 (stereo partly drawn) [Example 47, (E)-5-(2-bromovinyl)-2′-deoxyuridine-5′-[4-nitrophenyl-(benzoxy-α,α-dimethylglycinyl)]-phosphate] | 4.5 | 16.7 | 27.2 | – | – | – |
| COC(=O)C1(NP(=O)(OC[C@H]2O[C@@H](n3cc(/C=C/Br)c(=O)[nH]c3=O)CC2O)Oc2ccc([N+](=O)[O-])cc2)CCCC1 (stereo partly drawn) [Example 19, (E)-5-(2-Bromovinyl)-2′-deoxyuridine-5′-[para-nitrophenyl-(methoxy-α,α-cycloleucinyl)]-phosphate] | 56 | 38.2 | 88 | – | – | – |
| C[C@H](NP(=O)(OC[C@H]1O[C@@H](n2cc(/C=C/Br)c(=O)[nH]c2=O)CC1O)Oc1ccc(F)cc1)C(=O)OCc1ccccc1 (stereo partly shown) [Example 7] | 17 | 3.5 | 16 | – | – | – |
| CC(C)C[C@H](NP(=O)(OC[C@H]1O[C@@H](n2cc(/C=C/Br)c(=O)[nH]c2=O)CC1O)Oc1ccc([N+](=O)[O-])cc1)C(=O)OCc1ccccc1 (stereo partly drawn) [Example 38, (E)-5-(2-Bromovinyl)-2′-deoxyuridine-5′-(para-nitrophenyl-(benzoxy-L-leucinyl)]-phosphate] | 6.3 | 10.7 | 7.2 | – | – | – |
| CC(C)[C@H](NP(=O)(OC[C@H]1O[C@@H](n2cc(/C=C/Br)c(=O)[nH]c2=O)C[C@@H]1O)Oc1ccc(C(F)(F)F)cc1)C(=O)OCc1ccccc1 (stereo partly shown) [Example 78] | – | – | – | 1.6 | – | – |
| CCOC(=O)C1(NP(=O)(OC[C@H]2O[C@@H](n3cc(/C=C/Br)c(=O)[nH]c3=O)CC2O)Oc2ccccc2)CCCC1 (stereo partly drawn) [Example 17, (E)-5-(2-Bromovinyl)-2′-deoxyuridine-5′-[phenyl-(ethoxy-α, α-cycloleucinyl)]-phosphate] | 44 | 81.3 | 41 | – | – | – |
| CC(C)C[C@H](NP(=O)(OC[C@H]1O[C@@H](n2cc(/C=C/Br)c(=O)[nH]c2=O)CC1O)Oc1ccc(Cl)cc1)C(=O)OCc1ccccc1 (stereo partly drawn) [Example 39, (E)-5-(2-Bromovinyl)-2′-deoxyuridine-5′-[para-chlorophenyl-(benzoxy-L-leucinyl)]-phosphate] | 4.3 | 288 | 193 | – | – | – |
| COC(=O)[C@H](C)NP(=O)(OC[C@H]1O[C@@H](n2cc(/C=C/Br)c(=O)[nH]c2=O)CC1O)Oc1ccccc1 (stereo partly drawn) [Example 1, (E)-5-(2-Bromovinyl)-2′-deoxyuridine-5′-[phenyl-(methoxy-L-alaninyl)]-phosphate, reference compound] | 79 | 244 | 155 | – | 244 | – |
| CC(C)C(NP(=O)(OCC1OC(n2cc(C=CBr)c(=O)[nH]c2=O)CC1O)Oc1ccccc1)C(=O)OCc1ccccc1 (stereo not shown) [Example 85] | – | – | – | 31.2 | – | – |
| COC(=O)[C@H](C)NP(=O)(OC[C@H]1O[C@@H](n2cc(/C=C/Br)c(=O)[nH]c2=O)CC1O)Oc1ccc(Cl)cc1 (stereo partly drawn) [Example 13, (E)-5-(2-bromovinyl)-2′-deoxyuridine-5′-[4-chlorophenyl-(methoxy-L-alaninyl)]-phosphate] | 61 | 70.2 | 13 | – | – | – |
| CCOC(=O)C(C)(C)NP(=O)(OC[C@H]1O[C@@H](n2cc(/C=C/Br)c(=O)[nH]c2=O)CC1O)Oc1ccc(Cl)cc1 (stereo partly drawn) [Example 43, (E)-5-(2-bromovinyl)-2′-deoxyuridine-5′-[4-chlorophenyl-(ethoxy-α,α-dimethylglycinyl)]-phosphate] | 5.9 | 174 | 1.15 | – | – | – |
| CCOC(=O)C1(NP(=O)(OC[C@H]2O[C@@H](n3cc(/C=C/Br)c(=O)[nH]c3=O)CC2O)Oc2ccc(F)cc2)CCCC1 (stereo partly drawn) [Example 23, (E)-5-(2-Bromovinyl)-2′-deoxyuridine-5′-[para-fluorophenyl-(ethoxy-α,α-cycloleucinyl)]-phosphate] | 9.9 | 18.1 | 2.7 | – | – | – |

| Compound | EC50 [1] [µM] | EC50 [2, 4] [µM] | EC50 ([3]; Homo sapiens) [µM] | EC50 [3, 5] [µM] | EC50 ([2]; read-out: EC50/μM Colon HT115, MTT assay, compounds added to cells over 1 to 3 days) [µM] | EC50 [2, 6] [µM] |
| --- | --- | --- | --- | --- | --- | --- |
| C[C@H](NP(=O)(OC[C@H]1O[C@@H](n2cc(/C=C/Br)c(=O)[nH]c2=O)CC1O)Oc1ccc([N+](=O)[O-])cc1)C(=O)OCc1ccccc1 (stereo partly drawn) [Example 8, (E)-5-(2-Bromovinyl)-2′-deoxyuridine-5′-[para-nitrophenyl-(benzoxy-L-alaninyl)]-phosphate] | 28 | 9 | – | – | – | – |
| O=C(OCc1ccccc1)C1(NP(=O)(OC[C@H]2O[C@@H](n3cc(/C=C/Br)c(=O)[nH]c3=O)CC2O)Oc2ccc(F)cc2)CCCC1 (stereo partly drawn) [Example 24, (E)-5-(2-Bromovinyl)-2′-deoxyuridine-5′-[para-fluorophenyl-(benzoxy-α,α-cycloleucinyl)]-phosphate] | 9.4 | 17 | 3.7 | – | – | – |
| CCOC(=O)[C@H](C)NP(=O)(OC[C@H]1O[C@@H](n2cc(/C=C/Br)c(=O)[nH]c2=O)CC1O)Oc1ccc(Cl)cc1 (stereo partly drawn) [Example 11, (E)-5-(2-bromovinyl)-2′-deoxyuridine-5′-[4-chlorophenyl-(ethoxy-L-alaninyl)]-phosphate] | 28.7 | 14.9 | 3.4 | – | – | – |
| O=C(CNP(=O)(OCC1OC(n2cc(C=CBr)c(=O)[nH]c2=O)CC1O)Oc1ccc(Cl)cc1)OCc1ccccc1 (stereo not shown) [Example 77] | – | – | – | 150 | – | – |
| C[C@H](NP(=O)(OC[C@H]1O[C@@H](n2cc(/C=C/Br)c(=O)[nH]c2=O)CC1O)Oc1ccc(Cl)cc1)C(=O)OCc1ccccc1 (stereo partly drawn) [Example 12, (E)-5-(2-bromovinyl)-2′-deoxyuridine-5′-[4-chlorophenyl-(benzoxy-L-alaninyl)]-phosphate] | 6.2 | 3.4 | 2.4 | – | – | – |
| CCOC(=O)C(C)(C)NP(=O)(OC[C@H]1O[C@@H](n2cc(/C=C/Br)c(=O)[nH]c2=O)CC1O)Oc1ccc([N+](=O)[O-])cc1 (stereo partly drawn) [Example 46, (E)-5-(2-bromovinyl)-2′-deoxyuridine-5′-[4-nitrophenyl-(ethoxy-α,α-dimethylglycinyl)]-phosphate] | 2 | 224 | 82.4 | – | – | – |
| C[C@H](NP(=O)(OC[C@H]1O[C@@H](n2cc(/C=C/Br)c(=O)[nH]c2=O)CC1O)Oc1ccc(C(F)(F)F)cc1)C(=O)OCc1ccccc1 (stereo partly drawn) [Example 4, (E)-5-(2-Bromovinyl)-2′-deoxyuridine-5′-[para-trifluorophenyl-(benzoxy-L-alaninyl)]-phosphate] | 31 | 7.4 | 9.3 | – | – | – |
| CCOC(=O)C(C)(C)NP(=O)(OCC1OC(n2cc(C=CBr)c(=O)[nH]c2=O)CC1O)Oc1ccc(C(F)(F)F)cc1 (stereo not shown) [Example 59] | – | – | – | – | – | 24.7 |
| propenate-2′-deoxyuridine [Example 67, reference compound] | – | – | – | – | – | 93.7 |
| CC(C)(NP(=O)(OCC1OC(n2cc(C=CBr)c(=O)[nH]c2=O)CC1O)Oc1ccc(F)cc1)C(=O)OCc1ccccc1 (stereo not shown) [Example 84] | – | – | – | 4.5 | – | – |
| O=C(OCc1ccccc1)C(NP(=O)(OCC1OC(n2cc(C=CBr)c(=O)[nH]c2=O)CC1O)Oc1ccc(C(F)(F)F)cc1)c1ccccc1 (stereo not shown) [Example 91] | – | – | – | 0.7 | – | – |
| CCOC(=O)[C@H](C)NP(=O)(OC[C@H]1O[C@@H](n2cc(/C=C/Br)c(=O)[nH]c2=O)CC1O)Oc1ccc(C(F)(F)F)cc1 (stereo partly shown) [Example 25] | 33.8 | 4.6 | – | – | – | – |
| CCOC(=O)C(NP(=O)(OCC1OC(n2cc(C=CBr)c(=O)[nH]c2=O)CC1O)Oc1ccccc1)C(C)CC (stereo not shown) [Example 73] | – | – | – | 30.6 | – | – |
| O=C(OCc1ccccc1)C(Cc1ccccc1)NP(=O)(OCC1OC(n2cc(C=CBr)c(=O)[nH]c2=O)CC1O)Oc1ccccc1 (stereo not shown) [Example 54] | – | – | – | – | – | 5.1 |
| O=C(OCc1ccccc1)C1(NP(=O)(OC[C@H]2O[C@@H](n3cc(/C=C/Br)c(=O)[nH]c3=O)CC2O)Oc2ccc(C(F)(F)F)cc2)CCCC1 (stereo partly drawn) [Example 30, (E)-5-(2-Bromovinyl)-2′-deoxyuridine-5′-[para-trifluorophenyl-(benzoxy-α,α-cycloleucinyl)]-phosphate] | 6.9 | 6.4 | – | – | – | – |
| CC(C)C(NP(=O)(OCC1OC(n2cc(C=CBr)c(=O)[nH]c2=O)CC1O)Oc1ccc(Cl)cc1)C(=O)OCc1ccccc1 (stereo not shown) [Example 86] | – | – | – | 0.9 | – | – |
